Reference: paper PMC4300089, “Structure-Guided Design of Selective Epac1 and Epac2 Agonists” (PLoS Biology, 2015)

Tests used:
[1] = biological target: T1, Epac1 (Homo sapiens, UniProt O95398); assay: Epac activation assay, Epac1; format: biochemical; conditions: Epac1; for Rel. kmax: maximal activity relative to cAMP
T1 construct: made in house
T1 sequence (O95398 150-881 isoform O95398-3): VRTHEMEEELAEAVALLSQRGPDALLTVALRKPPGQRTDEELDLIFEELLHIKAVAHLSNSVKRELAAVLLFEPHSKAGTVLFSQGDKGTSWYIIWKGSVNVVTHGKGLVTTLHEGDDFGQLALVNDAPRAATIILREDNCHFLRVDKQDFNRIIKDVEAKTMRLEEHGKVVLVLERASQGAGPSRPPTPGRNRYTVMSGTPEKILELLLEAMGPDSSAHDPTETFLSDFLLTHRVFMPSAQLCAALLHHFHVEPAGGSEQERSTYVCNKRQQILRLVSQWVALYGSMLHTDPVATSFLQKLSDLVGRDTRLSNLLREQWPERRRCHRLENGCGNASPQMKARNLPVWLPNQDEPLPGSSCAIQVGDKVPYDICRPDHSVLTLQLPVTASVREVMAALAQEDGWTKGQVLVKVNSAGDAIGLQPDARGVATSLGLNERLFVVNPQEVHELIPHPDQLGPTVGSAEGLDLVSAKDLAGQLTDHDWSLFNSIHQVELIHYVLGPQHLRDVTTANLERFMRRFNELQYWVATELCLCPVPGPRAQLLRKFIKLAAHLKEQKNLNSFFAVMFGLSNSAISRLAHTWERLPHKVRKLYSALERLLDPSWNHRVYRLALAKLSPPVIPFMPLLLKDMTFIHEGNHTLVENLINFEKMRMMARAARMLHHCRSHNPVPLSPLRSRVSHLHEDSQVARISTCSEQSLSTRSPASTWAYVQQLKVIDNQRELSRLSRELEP

[2] = biological target: T2, Epac2^Δ280 (Mus musculus, UniProt Q9EQZ6); assay: Epac activation assay (Rap1B•mGDP fluorescence nucleotide exchange), Epac2^Δ280; format: biochemical; conditions: Epac2^Δ280; for Rel. kmax: maximal activity relative to cAMP
T2 construct: made in house
T2 sequence (Q9EQZ6 281-993 isoform Q9EQZ6-3): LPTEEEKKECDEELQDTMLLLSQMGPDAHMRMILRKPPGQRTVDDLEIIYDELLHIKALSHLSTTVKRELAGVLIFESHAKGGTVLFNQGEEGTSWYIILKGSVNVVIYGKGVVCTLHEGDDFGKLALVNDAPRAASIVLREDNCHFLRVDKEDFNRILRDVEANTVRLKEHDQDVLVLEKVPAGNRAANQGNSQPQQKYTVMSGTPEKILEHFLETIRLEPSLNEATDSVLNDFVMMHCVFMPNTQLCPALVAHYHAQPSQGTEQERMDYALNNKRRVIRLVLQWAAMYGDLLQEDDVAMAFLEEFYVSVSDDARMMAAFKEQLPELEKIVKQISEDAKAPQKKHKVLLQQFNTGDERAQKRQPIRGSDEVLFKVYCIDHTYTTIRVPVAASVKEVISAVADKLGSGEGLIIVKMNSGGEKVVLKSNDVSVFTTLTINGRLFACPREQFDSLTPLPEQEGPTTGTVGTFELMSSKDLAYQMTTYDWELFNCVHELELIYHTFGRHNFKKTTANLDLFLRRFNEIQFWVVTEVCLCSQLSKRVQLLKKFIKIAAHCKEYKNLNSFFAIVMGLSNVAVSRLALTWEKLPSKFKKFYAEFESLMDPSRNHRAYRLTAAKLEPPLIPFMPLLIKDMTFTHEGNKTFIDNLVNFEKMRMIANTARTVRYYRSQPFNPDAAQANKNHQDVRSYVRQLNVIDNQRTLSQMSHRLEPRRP
Protocol: Murine Epac2 was used as all previous structural studies were performed with it.
The activity of Epac was determined by a fluorescence assay. […] The fluorescence intensity of Rap1B•mGDP is approximately twice that of free mGDP, and thus, nucleotide exchange can be observed as a decay in fluorescence upon the addition of excess unlabeled GDP.

| SMILES | AC50 [1] | Rel. kmax [1] | AC50 [2] | Rel. kmax [2] |
| --- | --- | --- | --- | --- |
| Nc1ncnc2c1nc(SCc1ccccc1Cl)n2[C@@H]1O[C@@H]2CO[P@](O)(=S)O[C@H]2[C@H]1O [S-270, Sp-8-oCBnT-cAMPS] | 16 µM | 0.2 | 0.27 µM | 3.1 |
| Nc1ncnc2c1nc(Br)n2[C@@H]1O[C@@H]2CO[P@](O)(=S)O[C@H]2[C@H]1F [S-012, Sp-8-Br-2′-F-cAMPS] | 75 µM | 0.08 | 9.8 µM | 1.2 |
| Nc1ncnc2c1nc(Sc1ccc(Cl)cc1)n2[C@@H]1O[C@@H]2COP([O-])(=S)O[C@H]2[C@H]1O.[Na+] (stereo partly shown) [S-210, Sp-8-pCPT-cAMPS] | 2.2 µM | 0.5 | 0.13 µM | 0.7 |
| Nc1ncnc2c1nc(NCc1ccccc1)n2[C@@H]1O[C@@H]2COP(=O)(O)O[C@H]2[C@H]1O [L-014, 8-BnA-cAMP] | 30 µM | 0.2 | 1.9 µM | 1.5 |
| CO[C@H]1C2OP(O)(=S)OC[C@H]2O[C@H]1n1c(Sc2ccc(Cl)cc2)nc2c(N)ncnc21 (stereo partly shown) [S-211, Sp-8-pCPT-2′-O-Me-cAMPS] | 7.3 µM | 1.9 | 1.4 µM | 0.4 |
| Nc1ncnc2c1ncn2[C@@H]1O[C@@H]2COP(=O)(O)O[C@H]2[C@H]1N [Z-003, 2′-NH2-cAMP] | 80 µM | 0.8 | 9 µM | 0.9 |
| CO[C@@H]1[C@@H]2OP(=O)(O)OC[C@H]2O[C@H]1n1c(Sc2ccc(O)cc2)nc2c(N)ncnc21 [D-008, 8-pOHPT-2′-O-Me-cAMP] | 1 µM | 3.1 | 1.5 µM | 2.2 |
| Nc1ncnc2c1nc(Br)n2[C@@H]1O[C@@H]2CO[P@](O)(=S)O[C@H]2[C@H]1Cl [S-013, Sp-8-Br-2′-Cl-cAMPS] | 110 µM | 0.1 | 8 µM | 0.5 |
| Nc1ncnc2c1nc(Br)n2[C@@H]1O[C@@H]2COP(=O)(O)O[C@H]2[C@H]1F [D-004, 8-Br-2′-F-cAMP] | 100 µM | 0.4 | 14 µM | 1.5 |
| CNc1nc2c(N)ncnc2n1[C@@H]1O[C@@H]2CO[P@](O)(=S)O[C@H]2[C@H]1Cl [S-033, Sp-8-MeA-2′-Cl-cAMPS] | 120 µM | 0.1 | 14 µM | 0.7 |
| O[C@@H]1[C@@H]2OP(O)(=S)OC[C@H]2O[C@H]1n1cnc2cc(Cl)c(Cl)cc21 (stereo partly shown) [S-400, Sp-5,6-DCl-cBIMPS] | 14 µM | 1.0 | 0.9 µM | 0.8 |
| CNc1nc2c(N)ncnc2n1[C@@H]1O[C@@H]2COP(=O)(O)O[C@H]2[C@H]1Cl [D-001, 8-MeA-2′-Cl-cAMP] | 330 µM | ~0.6? | 45 µM | 2.2 |
| Nc1ncnc2c1nc(NC1CCCCC1)n2[C@@H]1O[C@@H]2COP(=O)(O)O[C@H]2[C@H]1O [L-013, 8-cHA-cAMP] | 50 µM | 0.3 | 4.7 µM | 0.3 |
| Nc1ncnc2c1ncn2[C@@H]1O[C@@H]2COP(=O)(O)O[C@H]2[C@H]1F [Z-002, 2′-F-cAMP] | 1500 µM | – | 25 µM | 1.0 |
| CNc1nc2c(N)ncnc2n1[C@H]1C[C@@H]2O[P@@](O)(=S)OC[C@H]2O1 [S-031, Sp-8-MeA-2′-dcAMPS] | 320 µM | 0.1 | 40 µM | 1.7 |
| Nc1ncnc2c1nc(SCc1ccccc1)n2[C@H]1C[C@@H]2O[P@@](O)(=S)OC[C@H]2O1 [S-221, Sp-8-BnT-2′-dcAMPS] | 280 µM | 0.06 | 10 µM | 1.5 |

| SMILES | AC50 [1] | Rel. kmax [1] | AC50 [2] | Rel. kmax [2] |
| --- | --- | --- | --- | --- |
| Nc1ncnc2c1nc(O)n2[C@@H]1O[C@@H]2CO[P@](O)(=S)O[C@H]2[C@H]1O [S-130, Sp-8-OH-cAMPS] | 80 µM | 0.6 | 1.3 µM | 1.4 |
| Nc1ncnc2c1nc(SCCc1ccccc1)n2[C@@H]1O[C@@H]2CO[P@](O)(=S)O[C@H]2[C@H]1O [S-190, Sp-8-PheET-cAMPS] | 6 µM | 0.2 | 0.14 µM | 0.4 |
| Nc1ncnc2c1nc([Se]Cc1ccccc1)n2[C@@H]1O[C@@H]2COP(=O)(O)O[C@H]2[C@H]1OCc1ccccc1 [D-012, 8-BnSe-2′-O-Bn-cAMP] | 38 µM | 0.9 | 4.6 µM | 1.0 |
| Nc1ncnc2c1nc(Cl)n2[C@@H]1O[C@@H]2COP(=O)(O)O[C@H]2[C@H]1Cl [D-006, 8,2′-DCl-cAMP] | – | – | 14 µM | 0.7 |
| CCCCCCNc1nc2c(N)ncnc2n1[C@@H]1O[C@@H]2COP(=O)(O)OC2[C@@H]1O (stereo partly drawn) [L-009, 8-HA-cAMP] | – | – | 2.5 µM | 2.0 |
| COc1ccc(CSc2nc3c(N)ncnc3n2[C@@H]2O[C@@H]3CO[P@](O)(=S)O[C@H]3[C@H]2O)cc1 [S-250, Sp-8-pMeOBnT-cAMPS] | – | – | 0.11 µM | 5.4 |
| CC(C)(C)c1ccc(CSc2nc3c(N)ncnc3n2[C@@H]2O[C@@H]3CO[P@](O)(=S)O[C@H]3[C@H]2O)cc1 [S-240, Sp-8-ptBuBnT-cAMPS] | – | – | 0.1 µM | 5.0 |
| COc1ccc(Sc2nc3c(N)ncnc3n2[C@@H]2O[C@@H]3COP(=O)(O)OC3[C@@H]2OC)cc1 (stereo partly drawn) [D-009, 8-pMeOPT-2′-O-Me-cAMP] | 2.3 µM | 2.7 | 2.8 µM | 0.5 |
| Nc1ncnc2c1ncn2[C@@H]1O[C@@H]2COP(=O)(O)O[C@H]2[C@H]1OCc1ccccc1 [Z-008, 2′-O-Bn-cAMP] | 75 µM | 1.5 | 35 µM | 0.4 |
| Nc1ncnc2c1nc(N1CCCCC1)n2[C@@H]1O[C@@H]2CO[P@](O)(=S)O[C@H]2[C@H]1O [S-110, Sp-8-PIP-cAMPS] | – | – | 9.5 µM | 3.7 |
| CN(C)c1nc2c(N)ncnc2n1[C@@H]1O[C@@H]2CO[P@](O)(=S)O[C@H]2[C@H]1O [S-070, Sp-8-DMeA-cAMPS] | – | – | 2.1 µM | 9.3 |
| Nc1ncnc2c1nc(Br)n2[C@H]1C[C@@H]2O[P@@](O)(=S)OC[C@H]2O1 [S-011, Sp-8-Br-2′dcAMPS] | – | – | 9 µM | 0.8 |
| CO[C@H]1C2OP(=O)(O)OC[C@H]2O[C@H]1n1c(Br)nc2c(N)ncnc21 (stereo partly drawn) [D-005, 8-Br-2′-O-Me-cAMP] | 35 µM | 0.9 | 8 µM | 1.6 |
| Nc1ncnc2c1nc(Br)n2[C@@H]1O[C@@H]2COP(=O)(O)O[C@H]2[C@H]1Cl [D-003, 8-Br-2′-Cl-cAMP] | 260 µM | ~0.5? | 11 µM | 0.9 |
| Nc1ncnc2c1nc(Cl)n2[C@@H]1O[C@@H]2CO[P@](O)(=S)O[C@H]2[C@H]1Cl [S-021] | – | – | 12 µM | 0.5 |
| C=CCNc1nc2c(N)ncnc2n1[C@@H]1O[C@@H]2COP(=O)(O)O[C@H]2[C@H]1O [L-011, 8-AllA-cAMP] | – | – | 1.9 µM | 1.5 |
